Results published in patent US10174060B2, “Process for purifying monooctylin trichloride” (CHEMTURA CORPORATION, priority 2014, dated 2019).

What was measured:
[1] = cited from earlier work
[2] = Extraction of mono-n-octyltin trichloride from organic phase into aqueous hydrochloric acid phase, dependence on chloride concentration (Example 5); type: physicochemical; settings: stepwise dilution with deionized water
Method: 20.3 g of mono-n-octyltin trichloride, 3.9 g of di-n-butyl ether and 9.5 g of n-heptane were mixed to give of clear and homogeneous solution. 8.6 g (7.4 mL) of a 32% aqueous HCl solution were added. The mixture was stirred for ca. 10 minutes, and then transferred into a graduated glass cylinder. 2 phases appeared; they were allowed to settle.
Portions of deionized water were added stepwise to the system, and the volume changes of organic and aqueous phases were noted. Volume decrease of the organic phase indicates extraction of monooctyltin into the aqueous phase.

[3] = Extraction of mono-n-octyltin trichloride with aqueous sodium chloride phase (Example 7); type: physicochemical; settings: 16 mL organic mixture, 2.5 g saturated NaCl solution plus 5 g deionized water, 45° C.
Method: 10.15 g of mono-n-octyltin trichloride, 1.95 g of di-n-butyl ether and 4.75 g of n-heptane were mixed to give of clear and homogeneous solution. […] 2.5 g of a saturated NaCl solution was were added. The mixture was stirred for ca. 10 minutes, and then transferred into a graduated glass cylinder. Phase separation could not be observed, because a suspension had formed. When further 5 g of deionized water were added and the mixture was heated to 45° C., 2 phases appeared. When they had settled, it became visible, that the volume of the organic phase was reduced from 16 mL to ca. 8 mL, indicating extraction of monooctyltin trichloride into the aqueous phase. Upon cooling to room temperature, the lower aqueous phase solidified.

[4] = Extraction of mono-n-octyltin trichloride into aqueous aluminum chloride phase, dependence on temperature (Example 6); type: physicochemical; settings: 30 minutes settling, 20 g mixture (18.5 mL) plus 8.4 g deionized water
Method: A mixture was prepared, consisting by weight of 55.7% mono-n-octyltin trichloride, 10.7% di-n-butyl ether, 26.2% n-heptane, 7.3% AlCl3. To 20 g of this mixture (having a volume of 18.5 mL), 8.4 g of deionized water were added under stirring, and the resulting mixture was placed into a graduated glass cylinder.
The temperature in the glass cylinder was adjusted to 20° C., and the phases were allowed to settle and separate for 30 minutes. The resulting volume of the organic phase was 8 mL.
Subsequently, the temperature in the glass cylinder was adjusted to 40° C., and the phases were allowed to settle and separate for 30 minutes. The resulting volume of the organic phase was 10 mL.
Subsequently, the temperature in the glass cylinder was adjusted to 60° C., and the phases were allowed to settle and separate for 30 minutes. The resulting volume of the organic phase was 14 mL.

[5] = Extraction of mono-n-octyltin trichloride from organic phase into aqueous aluminum chloride phase, dependence on chloride concentration (Example 4); type: physicochemical; settings: stepwise dilution with deionized water
Method: A mixture was prepared, consisting by weight of 55.7% mono-n-octyltin trichloride, 10.7% di-n-butyl ether, 26.2% n-heptane, 7.3% AlCl3. 10 g of this mixture were transferred into a graduated glass cylinder.
Portions of deionized water were added stepwise to the system, and the volume changes of organic and aqueous phase were noted. Volume decrease of the organic phase indicates extraction of monooctyltin into the aqueous phase.

Row | Compound | solubility in water [1] | HCl concentration at which extraction becomes particularly efficient [2] | volume of the organic phase after extraction [3] | volume of the organic phase ([4]; 20° C.) | volume of the organic phase ([4]; 40° C.) | volume of the organic phase ([4]; 60° C.) | aqueous aluminum chloride concentration at which extraction becomes particularly efficient [5]
1 | CCC[CH2][Sn]([Cl])([Cl])[Cl] [monobutyltin trichloride] | miscible | – | – | – | – | – | –
2 | CCCCCCC[CH2][Sn]([Cl])([CH2]CCCCCCC)[CH2]CCCCCCC [trioctyltin chloride] | practically insoluble | – | – | – | – | – | –
3 | CCCCCCC[CH2][Sn]([Cl])([Cl])[Cl] [mono-n-octyltin trichloride] | practically insoluble | approx. 16% | ca. 8 mL | 8 mL | 10 mL | 14 mL | ≤ 17%
4 | CCCCCCC[CH2][Sn]([Cl])([Cl])[CH2]CCCCCCC [dioctyltin dichloride] | practically insoluble | – | – | – | – | – | –
